Assay [1] has as its target T1, phosphorylated ERBB2 (pERBB2) (Homo sapiens, UniProt P04626).
T1 construct: endogenous in cells; host or cells: BT-474
The assay can be described thus: Detection of phosphorylated ERBB2 (pERBB2) by ELISA in BT-474 cells. In kind it is cell-based. Conditions: four hour incubation with compound. An outline of the steps: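 BT-474 cells treated 4 h at 37 °C, 5% CO2 with four-fold dilutions (10 μM to 0.01 nM final). Lysates analysed by ELISA for pERBB2, TMB read at OD 450 nm. % relative activity normalised to no-cell (low) and 0.1% DMSO-treated (high) controls.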
(ELISA stands for enzyme-linked immunosorbent assay.)

For assay [2], the target named is Ba/F3 ERBB2 YVMA (Homo sapiens, UniProt P04626, DUP772-775, cells depend on it). Put plainly: Cell viability assay (CellTiter Glo) in Ba/F3 cells engineered to express ERBB2 YVMA. Conditions: Ba/F3 cells expressing human ERBB2 YVMA mutant, 72 hours, % viability, read-out: Ba/F3 ERBB2 YVMA IC50. The format is cell-based, mouse. The gist of the method:
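IL-3-independent mouse Ba/F3 line stably transduced with human ERBB2 YVMA, seeded at 3000 cells/well, exposed to serially diluted compound (≤0.1% DMSO) for 72 h at 37° C. ATP read by CellTiter Glo luminescence, normalised to DMSO and media-only controls; sigmoidal nonlinear regression fit.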
(In general: ATP-based viability assays read luminescence as a measure of living cells.)

Assay [3] deals with T2, phosphorylated EGFR (pEGFR) (Homo sapiens, UniProt P00533).
T2 construct: performed to measure phosphorylated EGFR levels using A431 cells; endogenous in cells; host or cells: A431
T2 sequence (P00533 25-1210): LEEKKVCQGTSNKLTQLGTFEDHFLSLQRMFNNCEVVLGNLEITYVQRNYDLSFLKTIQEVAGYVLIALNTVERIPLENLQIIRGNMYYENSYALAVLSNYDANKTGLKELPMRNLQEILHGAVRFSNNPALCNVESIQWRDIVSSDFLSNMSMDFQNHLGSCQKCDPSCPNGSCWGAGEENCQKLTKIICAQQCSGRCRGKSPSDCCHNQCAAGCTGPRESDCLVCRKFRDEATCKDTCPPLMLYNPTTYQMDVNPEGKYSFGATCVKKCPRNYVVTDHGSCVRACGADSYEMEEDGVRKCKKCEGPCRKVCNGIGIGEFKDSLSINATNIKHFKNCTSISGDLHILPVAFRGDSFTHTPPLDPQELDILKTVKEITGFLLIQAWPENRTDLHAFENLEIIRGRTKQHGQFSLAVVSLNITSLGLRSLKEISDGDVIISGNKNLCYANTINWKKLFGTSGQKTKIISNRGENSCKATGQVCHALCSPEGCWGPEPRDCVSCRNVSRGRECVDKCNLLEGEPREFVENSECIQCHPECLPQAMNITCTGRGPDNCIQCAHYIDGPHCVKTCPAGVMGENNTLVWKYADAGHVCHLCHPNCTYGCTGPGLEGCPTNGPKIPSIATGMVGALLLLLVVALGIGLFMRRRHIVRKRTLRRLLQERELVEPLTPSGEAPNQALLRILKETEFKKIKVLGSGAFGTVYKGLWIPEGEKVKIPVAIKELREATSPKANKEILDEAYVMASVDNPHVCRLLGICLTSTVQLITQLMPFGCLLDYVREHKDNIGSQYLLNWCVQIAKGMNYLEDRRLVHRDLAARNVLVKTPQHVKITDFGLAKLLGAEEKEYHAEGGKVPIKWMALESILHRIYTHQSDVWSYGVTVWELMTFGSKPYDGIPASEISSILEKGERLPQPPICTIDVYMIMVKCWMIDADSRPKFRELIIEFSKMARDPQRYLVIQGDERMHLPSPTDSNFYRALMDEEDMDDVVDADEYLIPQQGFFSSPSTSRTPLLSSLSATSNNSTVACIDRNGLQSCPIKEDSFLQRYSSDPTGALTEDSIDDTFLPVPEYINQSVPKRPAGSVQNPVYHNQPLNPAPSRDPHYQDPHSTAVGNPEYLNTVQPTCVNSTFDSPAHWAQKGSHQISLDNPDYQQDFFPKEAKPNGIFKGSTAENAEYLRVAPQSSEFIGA
The assay can be described thus: Detection of phosphorylated EGFR (pEGFR) in EGF-stimulated A431 cells (AlphaLISA). Conditions: A431 cells (10% FBS), 4 hours incubation, EGF 30 ng/mL for 10 minutes. The format is cell-based. The gist of the method: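 Cells in 10% FBS treated with compound 4 h at 37° C., then stimulated 10 min with 30 ng/mL EGF, lysed, and pEGFR measured by AlphaLISA. Inhibition normalized to DMSO and staurosporine controls; IC50 from four-parameter logistic fit.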

This is an account of results in patent publication US20250136595A1, “ACYLATED HETEROCYCLIC QUINAZOLINE DERIVATIVES AS INHIBITORS OF ERBB2” (Enliven Inc., priority 2022, published 2025).

T1 sequence (P04626 23-1255): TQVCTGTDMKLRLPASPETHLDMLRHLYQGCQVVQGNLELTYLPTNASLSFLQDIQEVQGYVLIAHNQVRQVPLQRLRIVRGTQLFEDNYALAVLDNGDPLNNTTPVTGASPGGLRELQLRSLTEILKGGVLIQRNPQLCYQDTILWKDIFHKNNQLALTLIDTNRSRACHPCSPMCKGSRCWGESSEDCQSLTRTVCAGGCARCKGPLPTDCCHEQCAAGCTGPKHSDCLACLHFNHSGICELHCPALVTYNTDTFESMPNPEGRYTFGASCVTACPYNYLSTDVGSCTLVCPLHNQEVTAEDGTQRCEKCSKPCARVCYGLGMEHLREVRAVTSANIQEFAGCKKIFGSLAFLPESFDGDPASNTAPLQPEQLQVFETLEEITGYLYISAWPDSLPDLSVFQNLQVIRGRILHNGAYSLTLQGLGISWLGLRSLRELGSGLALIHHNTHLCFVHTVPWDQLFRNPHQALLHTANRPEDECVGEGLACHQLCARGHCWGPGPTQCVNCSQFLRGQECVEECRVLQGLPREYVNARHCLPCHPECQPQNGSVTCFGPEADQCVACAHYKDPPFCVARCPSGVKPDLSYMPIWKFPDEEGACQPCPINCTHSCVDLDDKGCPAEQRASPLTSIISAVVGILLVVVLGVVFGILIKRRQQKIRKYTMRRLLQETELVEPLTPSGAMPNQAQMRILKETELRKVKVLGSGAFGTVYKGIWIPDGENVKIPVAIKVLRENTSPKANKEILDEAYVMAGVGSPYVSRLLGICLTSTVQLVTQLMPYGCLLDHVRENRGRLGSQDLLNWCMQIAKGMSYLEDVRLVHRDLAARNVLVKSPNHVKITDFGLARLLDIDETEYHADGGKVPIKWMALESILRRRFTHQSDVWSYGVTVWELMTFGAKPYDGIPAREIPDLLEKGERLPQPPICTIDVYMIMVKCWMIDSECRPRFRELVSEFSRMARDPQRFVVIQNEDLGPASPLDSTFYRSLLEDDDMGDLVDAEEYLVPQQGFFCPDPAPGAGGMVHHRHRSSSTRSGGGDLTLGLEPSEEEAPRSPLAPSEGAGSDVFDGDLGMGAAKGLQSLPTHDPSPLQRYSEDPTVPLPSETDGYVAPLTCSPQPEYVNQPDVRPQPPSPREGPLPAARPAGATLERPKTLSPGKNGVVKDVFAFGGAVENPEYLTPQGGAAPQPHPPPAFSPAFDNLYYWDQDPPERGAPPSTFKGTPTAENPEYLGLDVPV
Chain of Ba/F3 ERBB2 YVMA (P04626 with tags, fused parts or gaps DUP772-775): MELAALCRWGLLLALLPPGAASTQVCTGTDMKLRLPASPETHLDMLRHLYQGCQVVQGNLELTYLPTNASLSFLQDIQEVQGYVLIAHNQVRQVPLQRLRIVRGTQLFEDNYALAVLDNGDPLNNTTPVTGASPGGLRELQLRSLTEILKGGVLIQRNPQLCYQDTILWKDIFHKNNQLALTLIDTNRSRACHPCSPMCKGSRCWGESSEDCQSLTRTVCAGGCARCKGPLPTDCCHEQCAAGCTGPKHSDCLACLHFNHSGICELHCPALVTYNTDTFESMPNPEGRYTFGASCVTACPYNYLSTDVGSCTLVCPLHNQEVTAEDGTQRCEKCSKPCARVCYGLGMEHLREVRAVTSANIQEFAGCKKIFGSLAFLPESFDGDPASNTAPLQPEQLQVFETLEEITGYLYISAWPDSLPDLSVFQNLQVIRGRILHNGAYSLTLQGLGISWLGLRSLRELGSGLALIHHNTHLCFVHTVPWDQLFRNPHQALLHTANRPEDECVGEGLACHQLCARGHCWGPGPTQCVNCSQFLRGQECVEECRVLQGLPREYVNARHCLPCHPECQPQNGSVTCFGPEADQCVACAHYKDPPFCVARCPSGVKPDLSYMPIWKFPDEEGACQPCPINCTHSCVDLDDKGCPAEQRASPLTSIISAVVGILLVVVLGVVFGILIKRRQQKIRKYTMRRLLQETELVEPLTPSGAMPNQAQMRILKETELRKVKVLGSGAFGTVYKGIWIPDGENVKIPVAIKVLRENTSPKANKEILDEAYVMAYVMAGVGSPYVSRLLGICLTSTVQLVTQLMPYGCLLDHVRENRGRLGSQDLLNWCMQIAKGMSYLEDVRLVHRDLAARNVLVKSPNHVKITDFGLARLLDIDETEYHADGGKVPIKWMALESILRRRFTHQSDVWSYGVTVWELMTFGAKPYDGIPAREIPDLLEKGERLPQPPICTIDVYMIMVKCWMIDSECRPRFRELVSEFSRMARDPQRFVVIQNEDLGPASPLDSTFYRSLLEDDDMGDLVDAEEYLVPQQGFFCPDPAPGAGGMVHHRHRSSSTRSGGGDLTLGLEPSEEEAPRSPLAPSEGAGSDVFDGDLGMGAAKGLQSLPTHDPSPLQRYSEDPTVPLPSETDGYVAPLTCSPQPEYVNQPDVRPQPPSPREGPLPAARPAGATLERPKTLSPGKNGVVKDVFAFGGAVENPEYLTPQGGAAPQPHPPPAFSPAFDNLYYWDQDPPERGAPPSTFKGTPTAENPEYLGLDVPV

In the case of `CC#CC(=O)N1CCN(c2ccc3ncnc(Nc4ccc(O[C@@H]5CCCOC5)c(C)c4)c3n2)CC1` [Compound 32, 1-{4-[4-({3-methyl-4-[(3R)-oxan-3-yloxy]phenyl}amino)pyrido[3,2-d]pyrimidin-6-yl]piperazin-1-yl}but-2-yn-1-one], the results for the IC50 in assay [1] and in assay [3] were 334 nM and 3820 nM, respectively. For the same compound, the GI50 in assay [2] was found to be 288 nM.

As to `CC#CC(=O)N1CCN(c2ccc3ncnc(Nc4ccc(O[C@H]5CCCOC5)c(C)c4)c3n2)CC1` [Compound 33, 1-{4-[4-({3-methyl-4-[(3S)-oxan-3-yloxy]phenyl}amino)pyrido[3,2-d]pyrimidin-6-yl]piperazin-1-yl}but-2-yn-1-one], the concentration for half-maximal inhibition (IC50) in assay [1] turned out to be 524 nM; in assay [3] it was 4050 nM. For the same compound, in assay [2], the GI50 came out at 237 nM.

In the case of `C=CC(=O)N1CCN(c2ccc3ncnc(Nc4ccc(CN5CCn6ncnc6C5)c(C)c4)c3n2)CC1` [Compound 34, 1-(4-{4-[(3-methyl-4-{5H,6H,8H-[1,2,4]triazolo[1,5-a]pyrazin-7-ylmethyl}phenyl)amino]pyrido[3,2-d]pyrimidin-6-yl}piperazin-1-yl)prop-2-en-1-one], the half-maximal inhibitory concentration (IC50) is 68.9 nM in assay [1] and above 10000 nM in assay [3]. In addition, the GI50 in assay [2] came to 255 nM.

Consider `C=CC(=O)N1CCN(c2ccc3ncnc(Nc4ccc(Oc5ccn6ncnc6c5)c(C)c4)c3c2)C[C@H]1C` [Compound 35, 1-[(2R)-2-methyl-4-{4-[(3-methyl-4-{[1,2,4]triazolo[1,5-a]pyridin-7-yloxy}phenyl)amino]quinazolin-6-yl}piperazin-1-yl]prop-2-en-1-one], for which the IC50 in assay [1] was 13.6 nM; in assay [3] it was 823 nM. Further, the GI50 in assay [2] amounted to 7.88 nM.

As to `C=CC(=O)N1CC[C@@H](Oc2ccc3ncnc(Nc4ccc(Oc5ccn6ncnc6c5)c(C)c4)c3c2)C1` [Compound 36, (R)-1-(3-((4-((4-([1,2,4]triazolo[1,5-a]pyridin-7-yloxy)-3-methylphenyl)amino)quinazolin-6-yl)oxy)pyrrolidin-1-yl)prop-2-en-1-one], the concentration for half-maximal inhibition (IC50) in assay [1] is 17.8 nM; in assay [3], above 10000 nM. Also, in assay [2], the GI50 is 98.7 nM.

Consider `C=CC(=O)N1CC[C@@H](Oc2ccc3ncnc(Nc4ccc(Oc5ccc6c(c5)ncn6C)c(C)c4)c3c2)C1` [Compound 37, 1-[(3R)-3-{[4-({3-methyl-4-[(1-methyl-1,3-benzodiazol-5-yl)oxy]phenyl}amino)quinazolin-6-yl]oxy}pyrrolidin-1-yl]prop-2-en-1-one], for which the figures for the IC50 in assay [1] and in assay [3] were 33.7 nM and 2880 nM, respectively. In addition, the GI50 in assay [2] was 52.8 nM.

In the case of `C=CC(=O)N1CC[C@H](Oc2ccc3ncnc(Nc4ccc(Oc5ccc6c(c5)ncn6C)c(C)c4)c3c2)C1` [Compound 38, 1-[(3S)-3-{[4-({3-methyl-4-[(1-methyl-1,3-benzodiazol-5-yl)oxy]phenyl}amino)quinazolin-6-yl]oxy}pyrrolidin-1-yl]prop-2-en-1-one], the 50% inhibitory concentration (IC50) in assay [1] came out at 7.56 nM; in assay [3], 462 nM. The GI50 in assay [2] was 7.22 nM.

As to `C=CC(=O)N1CCN(c2cc3c(Nc4ccc(Oc5ccc(C(=O)NCC(C)(C)C)cc5)c(C)c4)ncnc3cn2)CC1` [Compound 39, N-(2,2-dimethylpropyl)-4-[2-methyl-4-({6-[4-(prop-2-enoyl)piperazin-1-yl]pyrido[3,4-d]pyrimidin-4-yl}amino)phenoxy]benzamide], the IC50 in assay [1] is 59.9 nM; in assay [3] it was 3360 nM. Also, the GI50 in assay [2] is 53 nM.

For the compound `C=CC(=O)N1CCC(Nc2ccc3ncnc(Nc4ccc(Oc5ccn6ncnc6c5)c(C)c4)c3n2)CC1` [Compound 40, 1-[4-({4-[(3-methyl-4-{[1,2,4]triazolo[1,5-a]pyridin-7-yloxy}phenyl)amino]pyrido[3,2-d]pyrimidin-6-yl}amino)piperidin-1-yl]prop-2-en-1-one], the half-maximal inhibitory concentration (IC50) in assay [1] is 6.1 nM; in assay [3], 22 nM. In addition, the GI50 in assay [2] amounted to 5.81 nM.

As to `C=CC(=O)N1CCC[C@H](Nc2ccc3ncnc(Nc4ccc(Oc5ccn6ncnc6c5)c(C)c4)c3n2)C1` [Compound 41, (S)-1-(3-((4-((4-([1,2,4]triazolo[1,5-a]pyridin-7-yloxy)-3-methylphenyl)amino)pyrido[3,2-d]pyrimidin-6-yl)amino)piperidin-1-yl)prop-2-en-1-one], the half-maximal inhibitory concentration (IC50) in assay [1] is 18.1 nM; in assay [3] it was 1590 nM. The GI50 in assay [2] turned out to be 19.7 nM.

With `C=CC(=O)N1CCC[C@@H](Nc2ccc3ncnc(Nc4ccc(Oc5ccn6ncnc6c5)c(C)c4)c3n2)C1` [Compound 42, 1-[(3R)-3-({4-[(3-methyl-4-{[1,2,4]triazolo[1,5-a]pyridin-7-yloxy}phenyl)amino]pyrido[3,2-d]pyrimidin-6-yl}amino)piperidin-1-yl]prop-2-en-1-one], the results for the IC50 in assay [1] and in assay [3] were 29.7 nM and above 10000 nM, respectively. Moreover, in assay [2], the GI50 came out at 219 nM.

For the compound `C=CC(=O)N1CC[C@H](Nc2ccc3ncnc(Nc4ccc(Oc5ccn6ncnc6c5)c(C)c4)c3n2)C1` [Compound 43, 1-[(3S)-3-({4-[(3-methyl-4-{[1,2,4]triazolo[1,5-a]pyridin-7-yloxy}phenyl)amino]pyrido[3,2-d]pyrimidin-6-yl}amino)pyrrolidin-1-yl]prop-2-en-1-one], the 50% inhibitory concentration (IC50) in assay [1] was determined as 5.11 nM; in assay [3], 61.2 nM. For the same compound, in assay [2], the GI50 is 3.93 nM.

For the compound `C=CC(=O)N1CC[C@@H](Nc2ccc3ncnc(Nc4ccc(Oc5ccn6ncnc6c5)c(C)c4)c3n2)C1` [Compound 44, 1-[(3R)-3-({4-[(3-methyl-4-{[1,2,4]triazolo[1,5-a]pyridin-7-yloxy}phenyl)amino]pyrido[3,2-d]pyrimidin-6-yl}amino)pyrrolidin-1-yl]prop-2-en-1-one], the half-inhibitory concentration (IC50) in assay [1] was 6.33 nM; in assay [3], 268 nM. For the same compound, the GI50 in assay [2] worked out at 2.58 nM.

Consider `C=CC(=O)N1CCN(c2ncc3ncnc(Nc4ccc(Oc5ccn6ncnc6c5)c(C)c4)c3n2)CC1` [Compound 45, 1-(4-{8-[(3-methyl-4-{[1,2,4]triazolo[1,5-a]pyridin-7-yloxy}phenyl)amino]pyrimido[5,4-d][1,3]diazin-2-yl}piperazin-1-yl)prop-2-en-1-one], for which the IC50 in assay [1] is 9.23 nM; in assay [3], 667 nM. Also, the GI50 in assay [2] was determined as 4.5 nM.

`C=CC(=O)N1CCCC2(C1)CN(c1ccc3ncnc(Nc4ccc(Oc5ccn6ncnc6c5)c(C)c4)c3n1)C2` [Compound 46, 1-(2-{4-[(3-methyl-4-{[1,2,4]triazolo[1,5-a]pyridin-7-yloxy}phenyl)amino]pyrido[3,2-d]pyrimidin-6-yl}-2,6-diazaspiro[3.5]nonan-6-yl)prop-2-en-1-one]: the figures for the 50% inhibitory concentration (IC50) in assay [1] and in assay [3] were 45.3 nM and above 10000 nM, respectively. Moreover, the GI50 in assay [2] was 24.6 nM.

As for `C=CC(=O)N1CCN(c2ccc3ncnc(Nc4ccc(Oc5ccc6c(c5)ncn6C)c(C)c4)c3n2)C[C@@H]1C` [Compound 47, 1-[(2S)-2-methyl-4-[4-({3-methyl-4-[(1-methyl-1,3-benzodiazol-5-yl)oxy]phenyl}amino)pyrido[3,2-d]pyrimidin-6-yl]piperazin-1-yl]prop-2-en-1-one], the IC50 in assay [1] is 30 nM; in assay [3], 2440 nM. Also, the GI50 in assay [2] was determined as 14 nM.

Take `C=CC(=O)N1CCN(c2ccc3ncnc(Nc4ccc(Oc5ccc6c(c5)ncn6C)c(C)c4)c3n2)C[C@H]1C` [Compound 48, 1-[(2R)-2-methyl-4-[4-({3-methyl-4-[(1-methyl-1,3-benzodiazol-5-yl)oxy]phenyl}amino)pyrido[3,2-d]pyrimidin-6-yl]piperazin-1-yl]prop-2-en-1-one]: the IC50 in assay [1] stood at 33.2 nM; in assay [3], 1200 nM. Besides, in assay [2], the GI50 is 18.3 nM.

As to `C=CC(=O)N1CC[C@H](Oc2ccc3ncnc(Nc4ccc(Oc5ccc6c(c5)ncn6C)c(C)c4)c3n2)C1` [Compound 49, 1-[(3S)-3-{[4-({3-methyl-4-[(1-methyl-1,3-benzodiazol-5-yl)oxy]phenyl}amino)pyrido[3,2-d]pyrimidin-6-yl]oxy}pyrrolidin-1-yl]prop-2-en-1-one], the values for the 50% inhibitory concentration (IC50) in assay [1] and in assay [3] were 56.9 nM and 346 nM, respectively. Further, the GI50 in assay [2] is 15.7 nM.

On to `CC#CC(=O)N1CC[C@H](Oc2ccc3ncnc(Nc4ccc(Oc5ccc6c(c5)ncn6C)c(C)c4)c3n2)C1` [Compound 50, 1-[(3S)-3-{[4-({3-methyl-4-[(1-methyl-1,3-benzodiazol-5-yl)oxy]phenyl}amino)pyrido[3,2-d]pyrimidin-6-yl]oxy}pyrrolidin-1-yl]but-2-yn-1-one], for which the results for the concentration for half-maximal inhibition (IC50) in assay [1] and in assay [3] were 480 nM and above 10000 nM, respectively. In addition, in assay [2], the GI50 amounted to 52 nM.

For the compound `C=CC(=O)N1CCN(c2ccc3ncnc(Nc4ccc(Cc5ccn6ncnc6c5)c(C)c4)c3n2)C[C@H]1C` [Compound 51, 1-[(2R)-2-methyl-4-{4-[(3-methyl-4-{[1,2,4]triazolo[1,5-a]pyridin-7-ylmethyl}phenyl)amino]pyrido[3,2-d]pyrimidin-6-yl}piperazin-1-yl]prop-2-en-1-one], the concentration for half-maximal inhibition (IC50) in assay [1] stood at 20.9 nM; in assay [3] it was 1670 nM. Besides, the GI50 in assay [2] amounted to 5.71 nM.

Usually IC50 stands for the midpoint of a concentration-inhibition curve.
